Results reported in a melting point compilation (Tetko et al.; mined from patent text by program, amines drawn as free bases though some values may be those of a salt).

| melting point [°C] | Compound |
| --- | --- |
| 149 to 151 | CN(CCOc1ccc(CC(Cl)C(N)=O)cc1)c1nc2ccccc2o1 (stereo not drawn) |
| 217 to 220 | CCCCc1ncc(/C=C(\Cc2cccs2)C(=O)O)n1Cc1ccc(C(=O)OC)cc1 |
| 185 | O=C(O)C=Cc1cc([N+](=O)[O-])ccc1Br |
| 75 to 80 | CC(C)(C)c1ccc(S(=O)(=O)N2c3ccccc3C[C@H]2C(=O)NCc2ccc([N+](=O)[O-])cc2)cc1 |
| 140 to 142 | CCOP(=O)(Cc1ccnc(C(N)=O)c1)OCC |
| 73 to 74 | CC(=O)CC(=O)CCCCCCCC(=O)CC(C)=O |
| 89 to 90 | OCc1ccc(-c2cccnc2)s1 |
| 187 to 189 | O=C(c1ccc(Cl)cc1)c1c(N2C(=O)c3ccccc3C2=O)sc(-c2ccccc2)c1CN1CCCCC1 |
| 110 to 112 | Cc1c(SCCN(C)Cc2ccccc2)ccnc1CSc1nc2ccccc2[nH]1 |
| 203 to 206 | CCCn1nc2c(N)nc3ccccc3c2c1NCCC1CCN(C(C)=O)CC1 |
| 228 | CCCC1=C([N+](=O)[O-])C(c2ccccc2Cl)c2c[nH]nc2N1 (stereo not drawn) |
| 55 to 57 | Clc1cc(I)cnc1Cl |
| > 250 | CC(C)NC(=O)c1nc(-c2ccccc2)c(-c2ccc(=O)[nH]n2)s1 |
| 124 to 126 | COc1cc(OC)cc(N2CCN(C(=O)Nc3cc(C(C)O)c(C)nc3OC)CC2)c1 (stereo not drawn) |
| 159 to 160 | CCOC(=O)c1c(CCl)nc2cc(OC)c(OC)cc2c1-c1ccc(Cl)c(Cl)c1 |
| 142 to 143 | CCOc1cc(=O)oc2cc(C)ccc12 |
| 115 to 118 | O=C(COc1ccc2ccccc2c1)NC(Cc1ccccc1)C(=O)CSCc1ccco1 (stereo not drawn) |
| 152 to 154 | COc1cc(OC)c(C23CC4CC(CC(C4)C2)C3)cc1C#Cc1ccc(C(=O)O)cc1 |
| 97 to 98 | O=C(O)CCCCCCCNS(=O)(=O)c1ccc(F)cc1 |
| 95 | COc1ccc(C(=O)Nc2ccc3ccc(Oc4ccccc4)nc3n2)nn1 |
| 158 to 160 | CCCCC(=O)c1c(-c2ccc3cc(OCC(=O)O)ccc3c2)oc2ccc(Cl)cc12 |
| 80 | CC(C)c1nc2c(s1)C(=O)N(c1cccc(C(F)(F)F)c1)C2=O |
| 120 to 122 | CCCCN(Cc1ccc(-c2ccccc2-c2nnnn2C(c2ccccc2)(c2ccccc2)c2ccccc2)cc1)c1nc(C)ccc1C(=O)OCC |
| 46 to 50 | C[C@@H](O)[C@@H](OCc1ccccc1)[C@H](OCc1ccccc1)[C@@H](C)O |
| 120 to 122 | O=C1O[C@H](Cc2ccon2)CN1c1ccc(N2CCC3(CC2)OCCO3)c(F)c1 |

| melting point [°C] | Compound |
| --- | --- |
| 54 | COC(=O)CC1C(OC(C)=O)CC(=O)C1C(=O)OC (stereo not drawn) |
| 238 to 244 | O=C1C2CCC(N1c1cccs1)n1c(=O)n(-c3ccccc3)c(=O)n12 (stereo not drawn) |
| 246 | CC1(CCc2ccc(O)c(C(C)(C)C)c2)NC(=O)NC1=O (stereo not drawn) |
| 174 to 175 | O=Cc1cc(-n2cnnn2)cc2ccoc12 |
| 151 to 157 | C#CCOc1cc(C(=O)O)n(-c2ncc(Cl)cc2Cl)n1 |
| 106 to 117 | CCOCCn1c(NC2CCN(CCC3(c4ccccc4)CCN(C(=O)c4cc(OC)c(OC)c(OC)c4)C3)CC2)nc2ccccc21 (single isomer, unassigned; (-)) |
| 155 to 157 | Cc1cccc(-c2cn(C)cc(-c3cccc(C(F)(F)F)c3)c2=O)c1 |
| 33 to 35 | CCCCCCCCCCCCCCOCC(CC#N)(CC#N)COCCCCCCCCCCCCCC |
| 182 | CC(=O)NC(=O)Nc1ccc(OS(=O)(=O)c2cccc(C(F)(F)F)c2)cc1N |
| 143 to 145 | CC(C)N1CCN(c2ccc(OCCCCCCC(O)(Cn3ccnc3)c3ccc(Cl)cc3Cl)cc2)CC1 (stereo not drawn) |
| 155 to 157 | N=C(NNC=O)c1ccc(-c2ccc(Cl)cc2)o1 |
| 184 to 185 | COc1cc(COc2nn(-c3ccccc3)cc2/C=C/C#N)ccc1OCc1nc(-c2ccccc2)oc1C |
| 152 to 153 | CN1C(=O)c2cscc2N(Cc2ccccc2)c2ccccc21 |
| 94 to 95 | CCOC(=O)NCCOC(=O)COc1cc(Oc2ccc(C(F)(F)F)cc2Cl)ccc1[N+](=O)[O-] |
| 138 to 140 | CN1CC(C(=O)N(C)CCCc2ccc(Cl)c(Cl)c2)=C(O)C1=O |
| 192 to 193 | CC(=O)N(C)Cc1ccc(NC(=O)/C=C/c2cnn(C)c2-c2ccc(F)cc2)cc1 |
| 143 to 145 | CC(C)Oc1cc(-n2c(=O)c3c(n(C)c2=O)CCCC3)c(F)cc1Cl |
| 133 to 134 | N#Cc1ccc(C(=O)Nc2cccc(-n3nc(C(F)(F)F)cc3C(F)(F)F)c2)cc1 |
| 100 to 102 | CC(=O)N1CCN(c2cc3nc(C(C)(C)C)sc3cc2N=C=S)CC1 |
| 96 | CN1C(=O)N(Cc2cc(C(F)(F)F)cc(C(F)(F)F)c2)CC1(CCO)c1ccc(Cl)c(Cl)c1 (stereo not drawn) |
| > 300 | O=C(O)/C=C/c1ccc(-c2nc3c(=O)n(Cc4ccccc4)c(=O)n(Cc4ccccc4)c3[nH]2)cc1 |
| 230 | Nc1ccc(C(=O)O)c([N+](=O)[O-])c1 |
| 178 to 180 | COc1c(N2CC(C)C(N)C(C)C2)c(F)cc2c(=O)c(C(=O)O)cn(C3CC3)c12 (stereo not drawn) |
| 319 | O=C(O)c1ccc(C(=O)Nc2cccc([N+](=O)[O-])c2)cc1 |

More lines, now with the values behind:

| Compound | melting point [°C] |
| --- | --- |
| COC(=O)Oc1c(OC)c(OC)c(OC(=O)OC)c2ccccc12 | 53 to 54 |
| COc1nc2cc(Cl)c(Cl)cc2nc1OC | 144 to 146 |
| Cc1cc(OCc2ccccc2)cc2nc(OC(C)C)oc(=O)c12 | 137 to 138 |
| CCOC(=O)C(=CNc1cnnn1C)C(=O)c1cc(F)c(Cl)nc1Cl | 187 to 189 |
| Cn1c([N+](=O)[O-])cnc1C1=NOC2OCCCC12 (stereo not drawn) | 140 to 142 |
| CCC1CCn2c(nc(-c3ccncn3)cc2=O)N1CC(=O)c1ccccc1 (stereo not drawn) | 187 to 189 |
| O=C(O)C1Cc2ccccc2CN1C(=O)c1ccc(F)c(F)c1 (stereo not drawn) | 89 to 91 |
| O=C1OC(=O)c2c(C(F)(F)F)c3ccccc3c3cccc1c23 | 235 to 237 |
| COC(=O)c1ccc(CC(C)NCC(O)c2ccc(O)c(CO)c2)cc1OC (stereo not drawn) | 64 to 71 |
| CCOC(=O)c1ccccc1Nc1ccc(OC)cc1C | 42 to 43 |
| CCOC(=O)C1=C(C)NC(C)=C(C(=O)OCC)C1c1ccccc1Br | 144 to 145 |
| COC(=O)C1=C(C)NC(CC(=O)N2CCN(C3CC4CCC(C3)N4C(=O)OC(C)Cl)CC2)=C(C(=O)OC)C1c1c(Cl)cccc1Cl (stereo not drawn) | 135 to 145 |
| CCOCC1OC(n2cc(C(F)(F)F)c(=O)[nH]c2=O)CC1O (stereo not drawn) | 188 to 190 |
| Nc1nnc(-c2ccc3ncn(-c4cc(C(F)(F)F)ccc4Cl)c3c2)o1 | 288 to 289 |
| Cc1ccc(-n2c(-c3ccccc3)ccc2-c2ccccc2)cc1 | 207 to 208 |
| Fc1ccc(-c2nc(Cl)nc3c2CCC3)cc1 | 106 to 107 |
| CCCn1ccc(-c2ccc(C(=O)N3Cc4cccn4Cc4ccccc43)cc2)n1 | 159 to 161 |
| CC1(C)OC(c2ccc(S(C)(=O)=O)cc2)=C(c2cccc([N+](=O)[O-])c2)C1=O | 158 to 159 |
| CCCCCCC1CC(=O)C2=C(C1)NC(=O)CC2 (stereo not drawn) | 142 to 144 |
| O=C(O)C1(O)CCCN(Cc2ccccc2)C1 (stereo not drawn) | 104 |
| CC(C)c1cccc(C(C)C)c1N1C(=O)c2cccc3c(Br)ccc(c23)C1=O | 277 |
| CCNC(=O)c1ccc(N2CCN(Cc3cnc4c(c3)[nH]c(=O)n3cccc43)CC2)c(Cl)c1 | 266 to 271 |
| COC(=O)c1ccc(CCc2cnc3nc(N)nc(O)c3c2)cc1 | > 300 |
| Cn1cc(-c2ccc3nc(NC(=O)c4ccc(C(C)(C)C)nc4)cn3c2)cn1 | 228 to 230 |
| COc1ccc2cc(-c3ncn[nH]3)ccc2n1 | 198 to 200 |

| Compound | melting point [°C] |
| --- | --- |
| COc1ccc2[nH]cc(CC(=O)N3CCN(c4ccc([N+](=O)[O-])cc4)CC3)c2c1 | 239 to 240 |
| C=CCNC(=O)N1CC(Sc2ccc(Cl)cc2)C1 | 88 to 89 |
| Cc1cc(C(=O)CBr)cc(C)c1O | 128 to 131 |
| C[C@H](COc1ccc(C=C2SC(=S)N(CC(=O)O)C2=O)cc1O[C@@H](c1ccccc1)C(F)(F)F)c1ccccc1 | 73 to 80 |
| O=S1(=O)N=C(NCCCCc2ccccc2)Nc2cc(Cl)sc21 | 201 to 205 |
| CC(C)CC(CS)C(=O)NCC(=O)NCC(=O)O (stereo not drawn) | 152 to 156 |
| O=c1ccn(-c2cc3[nH]c(=O)c(=O)[nH]c3cc2F)cc1 | > 300 |
| CC(C)NC(=O)c1c(F)cccc1S(=O)C(C)(C)C (stereo not drawn) | 120 to 135 |
| O=S(=O)(N=Cc1ccc(Cl)cc1)c1ccc(Cl)cc1 | 128 |
| O=C1NC(=O)c2c1c(I)cc1[nH]c3ccc(O)cc3c21 | > 350 |
| COC(=O)c1cc2c(C)ccc(C)c2n1OC | 90 to 91 |
| c1ccc(NCC2CCCO2)cc1 (stereo not drawn) | 149 to 156 |
| CN(C)CC1CCCCN1CCNC(=O)N1c2ccccc2NC(=O)c2ccccc21 (stereo not drawn) | 152 to 154 |
| Cn1cccc1C1=C(c2cn(C)c3ccccc23)C(=O)NC1=O | 248 to 250 |
| CC(C)(C)ONC(=O)C(C)(C)CCOc1ccc(C2=NNC(=O)CC2)cc1Cl | 133 to 135 |
| O=[N+]([O-])c1ccc(Cc2cccnc2)cc1 | 87 to 88 |
| CSc1cn(C)c2cc(-c3ccccc3Cl)sc2c1=O | 175 to 177 |
| NS(=O)(=O)c1ccc2c(c1)S(=O)(=O)NC1CCCN21 (stereo not drawn) | 260 to 262 |
| CCN1CC(CCN(C)C)Oc2ncccc2C1=S (stereo not drawn) | 73 |
| O=C(Nc1ccc(Cl)cc1)C(Cl)CCl (stereo not drawn) | 128 to 129 |
| NC(=O)C1(O)c2ccccc2S(=O)(=O)N1Cc1ccc(Br)cc1F (stereo not drawn) | 182 to 184 |
| CCOC(=O)c1cc2c(cn1)[nH]c1ccc([N+](=O)[O-])cc12 | 320 to 325 |
| CCC(CC)(CC(=O)Nc1cccc(SCc2ccc3ccc(F)cc3n2)c1)C(=O)O | 70 to 71 |
| Cc1ccc(C(=O)NCC(O)CO)cc1-n1c(C)cc(OCc2ccccc2CNC(=O)Nc2cc(C(C)(C)C)nn2-c2ccc(Cl)c(O)c2)c(Cl)c1=O (stereo not drawn) | 169 to 171 |
